Results reported in US20240317714A1, “3-[(1H-PYRAZOL-R-YL)OXY]PYRAZIN-2-AMINE COMPOUNDS AS HPK1 INHIBITOR AND USE THEREOF” (BeiGene, Ltd., priority 2020, published 2024).

How the values were obtained:
[1] = target: HPK1 kinase (aal-346. Life Technologies) (Homo sapiens (Human), UniProt Q92918); assay: HPK Kinase Activity Assay at 1 mM ATP (TR-FRET); assay type: biochemical; settings: HPK1 kinase 40 nM, 0.5 μM STK1 substrate, read-out: Enzymatic activity IC50
[2] = test system: pSLP76(S376) level in Jurkat cell line; assay: Cellular pSLP76(S376) HTRF Assay; assay type: cell-based; settings: Jurkat cells, 2 h compound treatment, stimulated with 0.05 μg/mL anti-human CD3 (OKT3) for 30 min

HPK1 kinase (aal-346. Life Technologies), sequence (Q92918 1-346): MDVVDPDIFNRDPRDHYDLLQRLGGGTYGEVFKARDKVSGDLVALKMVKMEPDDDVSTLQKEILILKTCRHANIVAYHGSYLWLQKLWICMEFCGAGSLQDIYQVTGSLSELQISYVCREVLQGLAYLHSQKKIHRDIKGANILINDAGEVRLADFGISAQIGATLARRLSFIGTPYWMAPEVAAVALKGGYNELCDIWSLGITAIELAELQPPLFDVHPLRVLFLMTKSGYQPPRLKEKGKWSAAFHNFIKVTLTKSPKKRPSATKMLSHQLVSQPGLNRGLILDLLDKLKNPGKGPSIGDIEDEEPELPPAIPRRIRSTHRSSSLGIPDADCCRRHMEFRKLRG

SMILES | IC50 [1] [nM] | IC50 ([2]; Homo sapiens, Jurkat) [nM] | IC50 [2] [nM]
Cc1cc(-c2cnc(N)c(Oc3cnn(C4CCN(C)CC4)c3)n2)cc(C)c1CNCC(F)(F)F [Example A48, 5-(3,5-dimethyl-4-(((2,2,2-trifluoroethyl)amino)methyl)phenyl)-3-((1-(1-methylpiperidin-4-yl)-1H-pyrazol-4-yl)oxy)pyrazin-2-amine] | 50 | 183 | 
CNS(=O)(=O)c1cc(-c2cnc(N)c(Oc3cnn(C4CCN(C)CC4)c3)n2)cc(N2CCCCC2)c1 [Example A41, 3-(5-amino-6-((1-(1-methylpiperidin-4-yl)-1H-pyrazol-4-yl)oxy)pyrazin-2-yl)-N-methyl-5-(piperidin-1-yl)benzenesulfonamide] | 11 | 101 | 
Cc1cc(-c2cnc(N)c(Oc3cnn(C4CCN(C)CC4)c3)n2)cc(C)c1N1CCOCC1 [Example A66, 5-(3,5-dimethyl-4-morpholinophenyl)-3-((1-(1-methylpiperidin-4-yl)-1H-pyrazol-4-yl)oxy)pyrazin-2-amine] | 36 | 132 | 
Cc1cc(-c2cnc(N)c(Oc3cnn(C4CCN(C)CC4)c3)n2)cc(C2(O)CCOC2)c1N1CCOCC1 (stereo not drawn) [Example A96, 3-(5-(5-amino-6-((1-(1-methylpiperidin-4-yl)-1H-pyrazol-4-yl)oxy)pyrazin-2-yl)-3-methyl-2-morpholinophenyl)tetrahydrofuran-3-ol] | 36 | 117 | 
Cc1cc(-c2cnc(N)c(Oc3cnn(C4CCN(C)CC4)c3)n2)cc(C2(O)COC2)c1C [Example A73, 3-(5-(5-amino-6-(1-(1-methylpiperidin-4-yl)-1H-pyrazol-4-yloxy)pyrazin-2-yl)-2,3-dimethylphenyl)oxetan-3-ol] | 11 | 59 | 
CN1CCC(n2cc(Oc3nc(-c4cc(N5CCC[C@H]5CO)cc(C5(O)COC5)c4)cnc3N)cn2)CC1 [Example A85, (S)-3-(3-(5-amino-6-((1-(1-methylpiperidin-4-yl)-1H-pyrazol-4-yl)oxy)pyrazin-2-yl)-5-(2-(hydroxymethyl)pyrrolidin-1-yl)phenyl)oxetan-3-ol] | 3.7 | 28 | 
CC(=O)NCc1c(C)cc(-c2cnc(N)c(Oc3cnn(C4CCN(C)CC4)c3)n2)cc1C [Example A45, N-(4-(5-amino-6-((1-(1-methylpiperidin-4-yl)-1H-pyrazol-4-yl)oxy)pyrazin-2-yl)-2,6-dimethylbenzyl)acetamide] | 51 | 119 | 
CN1CCC(n2cc(Oc3nc(-c4cc(N5CCCOCC5)cc(C5(O)CCOC5)c4)cnc3N)cn2)CC1 (stereo not drawn) [Example A98, 3-(3-(5-amino-6-((1-(1-methylpiperidin-4-yl)-1H-pyrazol-4-yl)oxy)pyrazin-2-yl)-5-(1,4-oxazepan-4-yl)phenyl)tetrahydrofuran-3-ol] | 9.2 | 73 | 
C[C@@H]1COCCN1c1cc(-c2cnc(N)c(Oc3cnn(C4CCN(C)CC4)c3)n2)cc(C(C)(C)O)n1 [Example B3, (R)-2-(4-(5-amino-6-((1-(1-methylpiperidin-4-yl)-1H-pyrazol-4-yl)oxy)pyrazin-2-yl)-6-(3-methylmorpholino)pyridin-2-yl)propan-2-ol] | 11 | 229 | 
Cc1cc(-c2cnc(N)c(Oc3cnn(C4CCN(C)CC4)c3)n2)cc(S(=O)(=O)NCCC#N)c1 [Example A10, 3-(5-amino-6-((1-(1-methylpiperidin-4-yl)-1H-pyrazol-4-yl)oxy)pyrazin-2-yl)-N-(2-cyanoethyl)-5-methylbenzenesulfonamide] | 44 | 117 | 
Cc1cc(-c2cnc(N)c(Oc3cnn(C4CCN(C)CC4)c3)n2)cc(C)c1C(=O)NCCN1CCCC1 [Example A4, 4-(5-amino-6-((1-(1-methylpiperidin-4-yl)-1H-pyrazol-4-yl)oxy)pyrazin-2-yl)-2,6-dimethyl-N-(2-(pyrrolidin-1-yl)ethyl)benzamide] | 25 | 91 | 
Cc1cc(-c2cnc(N)c(Oc3cnn(C4CCN(C)CC4)c3)n2)cc(C2(O)COC2)c1C1OCCO1 [Example A87, 3-(5-(5-amino-6-((1-(1-methylpiperidin-4-yl)-1H-pyrazol-4-yl)oxy)pyrazin-2-yl)-2-(1,3-dioxolan-2-yl)-3-methylphenyl)oxetan-3-ol] | 56 | 89 | 
Cc1cc(CCNS(C)(=O)=O)cc(-c2cnc(N)c(Oc3cnn(C4CCN(C)CC4)c3)n2)c1 [Example A12, N-(3-(5-amino-6-((1-(1-methylpiperidin-4-yl)-1H-pyrazol-4-yl)oxy)pyrazin-2-yl)-5-methylphenethyl)methanesulfonamide] | 127 | 119 | 
CNS(=O)(=O)c1cc(-c2cnc(N)c(Oc3cnn(C4CCN(C)CC4)c3)n2)cc(C(C)(C)C)c1 [Example A30, 3-(5-amino-6-((1-(1-methylpiperidin-4-yl)-1H-pyrazol-4-yl)oxy)pyrazin-2-yl)-5-(tert-butyl)-N-methylbenzenesulfonamide] | 111 | 330 | 
Cc1cc(-c2cnc(N)c(Oc3cnn(C4CCN(C)CC4)c3)n2)cc([C@@]2(O)CCOC2)c1 (single isomer, unassigned) [Example A74A] | 46 |  | 85
Cc1cc(-c2cnc(N)c(Oc3cnn(C4CCN(C)CC4)c3)n2)cc(C2(O)CCOC2)c1F (stereo not drawn) [Example A93, 3-(5-(5-amino-6-((1-(1-methylpiperidin-4-yl)-1H-pyrazol-4-yl)oxy)pyrazin-2-yl)-2-fluoro-3-methylphenyl)tetrahydrofuran-3-ol] | 37 | 164 | 
Cc1cc(-c2cnc(N)c(Oc3cnn(C4CCN(C)CC4)c3)n2)cc(S(=O)(=O)NCCN2CCCCC2)c1 [Example A9, 3-(5-amino-6-((1-(1-methylpiperidin-4-yl)-1H-pyrazol-4-yl)oxy)pyrazin-2-yl)-5-methyl-N-(2-(piperidin-1-yl)ethyl)benzenesulfonamide] | 46 | 99 | 
C[C@@H]1COCCN1c1cc(-c2cnc(N)c(Oc3cnn(C4CCN(C)CC4)c3)n2)cc(C2(O)CCCOC2)c1 (single isomer, unassigned) [Example A90B] | 7.1 | 100 | 
Cc1cc(-c2cnc(N)c(Oc3cnn(C4CCN(C)CC4)c3)n2)cc(C)c1CNS(C)(=O)=O [Example A19, N-(4-(5-amino-6-((1-(1-methylpiperidin-4-yl)-1H-pyrazol-4-yl)oxy)pyrazin-2-yl)-2,6-dimethylbenzyl)methanesulfonamide] | 44 | 46 | 
CNc1cc(-c2cnc(N)c(Oc3cnn(C4CCN(C)CC4)c3)n2)cc(S(=O)(=O)NC)c1 [Example A22, 3-(5-amino-6-((1-(1-methylpiperidin-4-yl)-1H-pyrazol-4-yl)oxy)pyrazin-2-yl)-N-methyl-5-(methylamino)benzenesulfonamide] | 14 | 38 | 
Cc1cc(-c2cnc(N)c(Oc3cnn(C4CCN(C)CC4)c3)n2)cc(C2(O)COC2)c1Cl [Example A84, 3-(5-(5-amino-6-((1-(1-methylpiperidin-4-yl)-1H-pyrazol-4-yl)oxy)pyrazin-2-yl)-2-chloro-3-methylphenyl)oxetan-3-ol] | 58 | 83 | 
Cc1cc(-c2cnc(N)c(Oc3cnn(C4CCN(C)CC4)c3)n2)cc(C(C)(C)O)c1 [Example A52, 2-(3-(5-amino-6-((1-(1-methylpiperidin-4-yl)-1H-pyrazol-4-yl)oxy)pyrazin-2-yl)-5-methylphenyl)propan-2-ol] | 70 | 118 | 
Cc1cc(-c2cnc(N)c(Oc3cnn(C4CCN(C)CC4)c3)n2)cc(C)c1CNS(=O)(=O)C1CC1 [Example A32, N-(4-(5-amino-6-((1-(1-methylpiperidin-4-yl)-1H-pyrazol-4-yl)oxy)pyrazin-2-yl)-2,6-dimethylbenzyl)cyclopropanesulfonamide] | 30 | 81 | 
Cc1cc(-c2cnc(N)c(Oc3cnn(C4CCN(C)CC4)c3)n2)cc(C2(O)COC2)c1C1=CCOCC1 [Example A86, 3-(5-(5-amino-6-((1-(1-methylpiperidin-4-yl)-1H-pyrazol-4-yl)oxy)pyrazin-2-yl)-2-(3,6-dihydro-2H-pyran-4-yl)-3-methylphenyl)oxetan-3-ol] | 40 | 130 | 
Cc1cc(-c2cnc(N)c(Oc3cnn(C4CCN(C)CC4)c3)n2)cc(C)c1CNC(=O)NC1(C(F)(F)F)CC1 [Example A64, 1-(4-(5-amino-6-((1-(1-methylpiperidin-4-yl)-1H-pyrazol-4-yl)oxy)pyrazin-2-yl)-2,6-dimethylbenzyl)-3-(1-(trifluoromethyl)cyclopropyl)urea] | 16 | 45 | 
Cc1cc(-c2cnc(N)c(Oc3cnn(C4CCN(C)CC4)c3)n2)cc(C)c1CNS(=O)(=O)N1CCOCC1 [Example A71, N-(4-(5-amino-6-((1-(1-methylpiperidin-4-yl)-1H-pyrazol-4-yl)oxy)pyrazin-2-yl)-2,6-dimethylbenzyl)morpholine-4-sulfonamide] | 26 | 39 | 
Cc1cc(-c2cnc(N)c(Oc3cnn(C4CCN(C)CC4)c3)n2)cc([C@@]2(O)CCOC2)c1N1CCOCC1 [Example A97A, (S)-3-(5-(5-amino-6-((1-(1-methylpiperidin-4-yl)-1H-pyrazol-4-yl)oxy)pyrazin-2-yl)-3-methyl-2-morpholinophenyl)tetrahydrofuran-3-ol] | 18 | 78 | 
CC1OCCC1(O)c1cc(-c2cnc(N)c(Oc3cnn(C4CCN(C)CC4)c3)n2)cc(N2CCOC[C@H]2C)c1 (single isomer, unassigned) [Example A95B] | 4.5 |  | 
Cc1cc(-c2cnc(N)c(Oc3cnn(C4CCN(C)CC4)c3)n2)cc([C@H]2CCC(=O)N2)c1 [Example A61A, (R)-5-(3-(5-amino-6-((1-(1-methylpiperidin-4-yl)-1H-pyrazol-4-yl)oxy)pyrazin-2-yl)-5-methylphenyl)pyrrolidin-2-one] | 253 |  | 
C[C@@H]1COCCN1c1cc(-c2cnc(N)c(Oc3cnn(C4CCN(C)CC4)c3)n2)cc(C2(O)CCCOC2)c1 (single isomer, unassigned) [Example A90A] | 82 |  | 
